Measurements taken from patent US11040976B2, “Substrate selective inhibitors of insulin-degrading enzyme (IDE) and uses thereof” (President and Fellows of Harvard College, priority 2015, dated 2021).

These compounds were tested against T1, recombinant human IDE42-1019 (Homo sapiens, UniProt P14735) (assay: Protease assay with fluorogenic peptide substrate Mca-[…](Dnp)-OH). Settings: fluorogenic peptide Mca-RPPGFSAFK(Dnp)-OH; apparent IC50 for compounds with submaximal inhibition; read-out: IC50 (μM) Proteolysis.
T1 construct: recombinant human IDE42-1019 (R&D Systems); purchased R&D Systems
T1 sequence (P14735 42-1019): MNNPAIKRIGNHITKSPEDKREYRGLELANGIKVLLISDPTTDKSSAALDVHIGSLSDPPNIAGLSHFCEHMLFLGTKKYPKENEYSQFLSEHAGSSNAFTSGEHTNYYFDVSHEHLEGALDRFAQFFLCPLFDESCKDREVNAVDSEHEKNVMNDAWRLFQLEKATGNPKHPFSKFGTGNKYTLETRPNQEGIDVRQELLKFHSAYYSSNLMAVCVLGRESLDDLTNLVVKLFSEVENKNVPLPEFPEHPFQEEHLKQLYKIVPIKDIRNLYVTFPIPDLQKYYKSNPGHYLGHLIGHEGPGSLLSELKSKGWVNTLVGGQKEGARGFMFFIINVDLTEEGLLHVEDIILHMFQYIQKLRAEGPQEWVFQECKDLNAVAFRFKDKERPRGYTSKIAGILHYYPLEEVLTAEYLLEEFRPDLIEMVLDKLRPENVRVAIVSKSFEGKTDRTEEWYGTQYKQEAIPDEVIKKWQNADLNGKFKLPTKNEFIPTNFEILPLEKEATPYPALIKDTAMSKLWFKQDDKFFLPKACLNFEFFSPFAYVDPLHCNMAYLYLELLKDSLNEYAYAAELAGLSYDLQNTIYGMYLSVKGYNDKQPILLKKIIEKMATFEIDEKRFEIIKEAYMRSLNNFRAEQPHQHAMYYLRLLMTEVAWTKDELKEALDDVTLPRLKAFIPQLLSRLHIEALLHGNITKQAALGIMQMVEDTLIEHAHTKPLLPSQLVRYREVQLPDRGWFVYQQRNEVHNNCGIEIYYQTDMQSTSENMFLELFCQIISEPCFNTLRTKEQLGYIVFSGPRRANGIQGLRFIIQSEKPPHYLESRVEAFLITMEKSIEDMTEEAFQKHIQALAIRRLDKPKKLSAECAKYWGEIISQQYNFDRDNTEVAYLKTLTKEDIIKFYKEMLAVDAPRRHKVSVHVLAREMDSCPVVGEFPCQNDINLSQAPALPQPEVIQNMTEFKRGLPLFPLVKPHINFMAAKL
Assay type: biochemical

IC50 | SMILES
1 µM | COc1ccccc1-c1ccc([C@@H]2[C@@H](C#N)N(C(=O)NC3CCCCC3)[C@@H]2CO)cc1 [D8]
7.5 µM | COc1ccccc1-c1ccc([C@@H]2[C@@H](C#N)N(C(=O)c3cccnc3)[C@@H]2CO)cc1 [D9]
> 100 µM | Cc1ccccc1-c1ccc([C@H]2[C@H](CO)N3C(=O)CN(S(C)(=O)=O)C[C@@H]23)cc1 [compound 061]
> 50 µM | Cc1cccc(-c2ccc([C@@H]3[C@@H](CO)N4CCCCN(CCC(F)(F)F)C[C@@H]34)cc2)c1 [compound 073]
> 100 µM | Cc1ccccc1-c1ccc([C@H]2[C@@H](CO)N3CCCCN(S(C)(=O)=O)C[C@@H]23)cc1 [compound 077]
2.5 µM | Cc1ccccc1-c1ccc([C@@H]2[C@@H](CO)N3C(=O)CN(C(=O)Cc4ccccn4)C[C@@H]23)cc1 [compound 081]
7 µM | Cc1cccc(-c2ccc([C@H]3[C@@H](CO)N4CCCCN(C(=O)c5cccnc5)C[C@H]34)cc2)c1 [compound 091]
2.5 µM | Cc1ccccc1-c1ccc([C@@H]2[C@H]3CN(C(=O)Cc4ccccn4)CC(=O)N3[C@H]2CO)cc1 [compound 140]
> 100 µM | COc1ccccc1C#Cc1ccc([C@H]2[C@H]3CN(C(=O)C4CCC4)CCCCN3[C@H]2CO)cc1 [compound 141]
6 µM | O=C(C1CCOCC1)N1CC(=O)N2[C@H](CO)[C@H](c3ccc(C#Cc4cccc(F)c4)cc3)[C@H]2C1 [compound 142]
> 10 µM | COc1ccccc1NC(=O)N1CCCCN2[C@H](CO)[C@@H](c3ccc(-c4cccc(C)c4)cc3)[C@@H]2C1 [compound 154]

SMILES | IC50
Cc1ccccc1-c1ccc(C2C3CN(C(=O)c4cnccn4)CC2N3)cc1 (centres unmarked) [C1] | 2 µM
Cc1ccccc1-c1ccc(C2C3CN(S(=O)(=O)c4cn(C)cn4)CC2N3)cc1 (centres unmarked) [C2] | 7 µM
Cc1ccccc1-c1ccc(C2C3CN(Cc4ccncc4)CC2N3)cc1 (centres unmarked) [C3] | 5 µM
COc1ccccc1-c1ccc(C2C3CN(C(=O)c4cccnc4)CC2N3)cc1 (centres unmarked) [C4] | 7.5 µM
Cc1ccccc1-c1ccc(C2C3CN(C(=O)C4CCCCC4)CC2N3)cc1 (centres unmarked) [C6] | 2 µM
Cc1ccccc1-c1ccc(C2C3CN(C(=O)C4CCOCC4)CC2N3)cc1 (centres unmarked) [C7] | 2.5 µM
Cc1ccccc1-c1ccc(C2C3CN(Cc4cncnc4)CC2N3)cc1 (centres unmarked) [C8] | 7.5 µM
Cc1ccccc1-c1ccc(C2C3CN(Cc4cocn4)CC2N3)cc1 (centres unmarked) [C9] | 25 µM

Same assay, conditions: fluorogenic peptide Mca-RPPGFSAFK(Dnp)-OH; plateau at high inhibitor concentration; read-out: Imax (%) Proteolysis (inhibition maximum)

SMILES | Emax
Cc1ccccc1-c1ccc(C2C3CN(C(=O)c4cnccn4)CC2N3)cc1 (centres unmarked) [C1] | 70%
Cc1ccccc1-c1ccc(C2C3CN(S(=O)(=O)c4cn(C)cn4)CC2N3)cc1 (centres unmarked) [C2] | 50%
Cc1ccccc1-c1ccc(C2C3CN(Cc4ccncc4)CC2N3)cc1 (centres unmarked) [C3] | 70%
COc1ccccc1-c1ccc(C2C3CN(C(=O)c4cccnc4)CC2N3)cc1 (centres unmarked) [C4] | 70%
Cc1ccccc1-c1ccc(C2C3CN(C(=O)C4CCCCC4)CC2N3)cc1 (centres unmarked) [C6] | 60%
Cc1ccccc1-c1ccc(C2C3CN(C(=O)C4CCOCC4)CC2N3)cc1 (centres unmarked) [C7] | 80%
Cc1ccccc1-c1ccc(C2C3CN(Cc4cncnc4)CC2N3)cc1 (centres unmarked) [C8] | 70%
Cc1ccccc1-c1ccc(C2C3CN(Cc4cocn4)CC2N3)cc1 (centres unmarked) [C9] | > 60%
COc1ccccc1-c1ccc([C@@H]2[C@@H](C#N)N(C(=O)NC3CCCCC3)[C@@H]2CO)cc1 [D8] | 40%
COc1ccccc1-c1ccc([C@@H]2[C@@H](C#N)N(C(=O)c3cccnc3)[C@@H]2CO)cc1 [D9] | 60%
Cc1ccccc1-c1ccc([C@@H]2[C@@H](CO)N3C(=O)CN(C(=O)Cc4ccccn4)C[C@@H]23)cc1 [compound 081] | 50%
Cc1cccc(-c2ccc([C@H]3[C@@H](CO)N4CCCCN(C(=O)c5cccnc5)C[C@H]34)cc2)c1 [compound 091] | 70%
Cc1ccccc1-c1ccc([C@@H]2[C@H]3CN(C(=O)Cc4ccccn4)CC(=O)N3[C@H]2CO)cc1 [compound 140] | 50%
O=C(C1CCOCC1)N1CC(=O)N2[C@H](CO)[C@H](c3ccc(C#Cc4cccc(F)c4)cc3)[C@H]2C1 [compound 142] | ~100%
COc1ccccc1NC(=O)N1CCCCN2[C@H](CO)[C@@H](c3ccc(-c4cccc(C)c4)cc3)[C@@H]2C1 [compound 154] | 20%

Each compound was assayed against T2, Human N-His6-IDE42-1019 (E. coli expressed) (Homo sapiens, UniProt P14735) (assay: Fluorescence anisotropy high-throughput screening assay (displacement of probe FL-6b)). Settings: final compound concentration 20 μM (6bK control 1 μM); values without asterisk.
T2 construct: Human N-His6-IDE42-1019 (E. coli expressed); made in house; host or cells: E. coli (Rosetta 2 (DE3) pLysS, plasmid pTrcHis-A)
T2 sequence (P14735 42-1019): T1 sequence (P14735 42-1019)
Assay type: binding
Method: The fluorescence anisotropy screening method and probe FL-6b are described in PCT application PCT/US2014/064322, incorporated herein by reference.
Human N-His6-IDE42-1019 (E. coli expressed) was mixed with fluorescein-labeled macrocycle FL-6b:
[drawing 802] in 50 mM Tris buffer pH 8.0, with 1 M NaCl, at 25° C. Optimum signal was obtained using a mixture of […] probe FL-6b and 0.5 μM IDE. The “diversity-oriented (DOS) synthesis informer set” compound plates were pinned onto 384-well plates containing the enzyme-probe mixture (50 μL/well). The azetidine screen was pre-printed on 384-well plates and the enzyme-probe mixture was added (50 μL/well). The final compound concentration was 20 μM. IDE inhibitor 6bK was used as a positive control at a final concentration of 1 μM. After 30 minutes of equilibration, the increase in fluorescence anisotropy was recorded using an EnVision spectrophotometer (excitation 492 nm, emission 523 nm). The fluorescence anisotropy was independently measured twice for each screened compound. The Z-scores for each pair of measurements are plotted in FIG. 1A (DOS informer set) and FIG. 1B (azetidines), and average Z-scores are listed for exemplary compounds in Table E1.
Z-scores were calculated based on the raw anisotropy measured for each well according to Eq. 1, wherein x is the raw anisotropy value of the well, μ is the mean of the anisotropy of the negative control wells (DMSO) for the plate, and σ is the standard deviation in anisotropy of the negative control wells (DMSO) for the plate.

Average Z-score (Fluorescence anisotropy) | SMILES
−33.77 | COc1ccccc1-c1ccc([C@@H]2[C@@H](C#N)N(C(=O)NC3CCCCC3)[C@@H]2CO)cc1 [D8]
−12.03 | COc1ccccc1-c1ccc([C@@H]2[C@@H](C#N)N(C(=O)c3cccnc3)[C@@H]2CO)cc1 [D9]
−1.36 | Cc1ccccc1-c1ccc([C@H]2[C@H](CO)N3C(=O)CN(S(C)(=O)=O)C[C@@H]23)cc1 [compound 061]
−0.68 | Cc1cccc(-c2ccc([C@@H]3[C@@H](CO)N4CCCCN(CCC(F)(F)F)C[C@@H]34)cc2)c1 [compound 073]
−2.31 | Cc1ccccc1-c1ccc([C@H]2[C@@H](CO)N3CCCCN(S(C)(=O)=O)C[C@@H]23)cc1 [compound 077]
−19.85 | Cc1ccccc1-c1ccc([C@@H]2[C@@H](CO)N3C(=O)CN(C(=O)Cc4ccccn4)C[C@@H]23)cc1 [compound 081]
−16.96 | Cc1cccc(-c2ccc([C@H]3[C@@H](CO)N4CCCCN(C(=O)c5cccnc5)C[C@H]34)cc2)c1 [compound 091]
−17.72 | Cc1ccccc1-c1ccc([C@@H]2[C@H]3CN(C(=O)Cc4ccccn4)CC(=O)N3[C@H]2CO)cc1 [compound 140]
−19.27 | O=C(C1CCOCC1)N1CC(=O)N2[C@H](CO)[C@H](c3ccc(C#Cc4cccc(F)c4)cc3)[C@H]2C1 [compound 142]
−2.84 | COc1ccccc1NC(=O)N1CCCCN2[C@H](CO)[C@@H](c3ccc(-c4cccc(C)c4)cc3)[C@@H]2C1 [compound 154]

SMILES | Average Z-score (Fluorescence anisotropy)
Cc1ccccc1-c1ccc(C2C3CN(C(=O)c4cnccn4)CC2N3)cc1 (centres unmarked) [C1] | −20.0
Cc1ccccc1-c1ccc(C2C3CN(S(=O)(=O)c4cn(C)cn4)CC2N3)cc1 (centres unmarked) [C2] | −16.62
Cc1ccccc1-c1ccc(C2C3CN(Cc4ccncc4)CC2N3)cc1 (centres unmarked) [C3] | −9.02
COc1ccccc1-c1ccc(C2C3CN(C(=O)c4cccnc4)CC2N3)cc1 (centres unmarked) [C4] | −13.76
Cc1ccccc1-c1ccc(C2C3CN(C(=O)C4CCCCC4)CC2N3)cc1 (centres unmarked) [C6] | −13.8
Cc1ccccc1-c1ccc(C2C3CN(C(=O)C4CCOCC4)CC2N3)cc1 (centres unmarked) [C7] | −7.7
Cc1ccccc1-c1ccc(C2C3CN(Cc4cncnc4)CC2N3)cc1 (centres unmarked) [C8] | −2.58
Cc1ccccc1-c1ccc(C2C3CN(Cc4cocn4)CC2N3)cc1 (centres unmarked) [C9] | −3.01

Same assay, conditions: values marked *: from the screen using the diversity-oriented synthesis (DOS) informer set of plates; 20 μM

Average Z-score (Fluorescence anisotropy) | SMILES
−17.53* | COc1ccccc1C#Cc1ccc([C@H]2[C@H]3CN(C(=O)C4CCC4)CCCCN3[C@H]2CO)cc1 [compound 141]
